The source of these data is patent US20230309562A1 (priority 2020, published 2023).

The test system of assay [1] is SARS COVID-19. Type of assay: cell-based. The conditions noted are these: for TCID 50% viral kill: 5-minute exposure.
The subject of assay [2] is infectious microorganism. The following applies: cited from earlier work.
The test system of assay [3] is Influenza A. It counts as cell-based.
For assay [4], the system named is Ebola virus. The following applies: exposure times of at least several minutes required, cited from earlier work.

Read-outs that look alike come from different tables or passages of the source.

On to `OCl` [HOCl, hypochlorous acid], for which the “TCID 50% viral kill” value in assay [1] (1 ppm), in assay [1] (2.5 ppm), in assay [1] (10 ppm), in assay [1] (25 ppm) and in assay [3] was “viral kill positive” in each case. Moreover, the “virus kill by HOCl treatment” value is recorded as “killed” in assay [1] (concentrations of between 1 ppm and 25 ppm); “killed” in assay [3]. Besides, in assay [2] (2.6 ppm, in 5 minutes), the growth inhibition is listed as 100%. In addition, the LD50 in assay [2] (reported) is 0.0104-0.156 ppm.
As for `OCl` [sodium hypochlorite, Sodium hypochlorite], the “destruction of Ebola virus” value in assay [4] (0.5% solution) and in assay [4] (1% solution) was “effectively destroy” throughout.
